Measured values published in patent US20070093520A1, “Method of treatment of diarrhea-predominant irritable bowel syndrome in a subject” (priority 2005, published 2007).

System: diarrhea-predominant IBS subjects
Assay: 3007 Study: open-label 52-week safety study, adverse events and withdrawals
Details: P/C group

Cc1nccn1C[C@H]1CCc2c(c3cccc4c3n2CCC4)C1=O [cilansetron, (R)-(−)-4,5,6,8,9,10-hexahydro-10-[(2-methyl-1H-imidazol-1-yl)methyl]-11H-pyrido-[3,2,1-jk]-carbazol-11-one]
18 (6%) n (%): TEAE: Respiratory, Thoracic and Mediastinal Disorders
5 (2%) n (%): TEAE: Eye Disorders
3 (1%) n (%): TEAE: Elevated Cholesterol | TEAE: General Signs and Symptoms NEC | TEAE: Hypercholesterolaemia | TEAE: Hyperglycaemia NOS | TEAE: Oedema NEC | TEAE: Paranasal Sinus Disorders (Excl Infections and Neoplasms) | TEAE: Pharyngitis
10 (4%) n (%): TEAE: Metabolism and Nutrition Disorders
4 (1%) n (%): TEAE: Ear and Labyrinth Disorders | TEAE: Hyperglycaemic Conditions NEC | TEAE: Immune System Disorders | TEAE: Rashes, Eruptions and Exanthems NEC | TEAE: Renal and Urinary Disorders
19 (7%) n (%): TEAE: General Disorders and Administration Site Conditions
12 (4%) n (%): TEAE: Reproductive System and Breast Disorders
6 (2%) n (%): TEAE: Fatigue | TEAE: Hypertension NOS | TEAE: Neoplasms Benign, Malignant and Unspecified (Incl Cysts and Polyps)
1 (<1%) n (%): TEAE: Dyspnoea NOS | TEAE: Ear Disorders NEC | TEAE: Ear Pain | TEAE: Eczema | TEAE: Febrile Disorders | TEAE: Fibroma NOS | TEAE: Fluid Intake Increased | TEAE: Food Allergy | TEAE: Gilbert's Syndrome | TEAE: Glucose Tolerance Impaired | TEAE: Glycosuria | TEAE: Hallucination NOS | TEAE: Hallucination, Auditory | TEAE: Hand Fracture | TEAE: Hepatobiliary Disorders | TEAE: Hernia NOS | TEAE: Hernias NEC | TEAE: Hyperkeratoses | TEAE: Hyperkeratosis | TEAE: Hypersensitivity NOS | TEAE: Hypertension Aggravated | TEAE: Hypotension NOS | TEAE: Inborn Errors of Bilirubin Metabolism | TEAE: Influenza Like Illness | TEAE: Ingrowing Nail | TEAE: Inner Ear Infections and Inflammations | TEAE: Irritability | TEAE: Labyrinthitis NOS | TEAE: Lactose Intolerance | TEAE: Laryngeal and Adjacent Sites Disorders NEC (Excl Infections and Neoplasms) | TEAE: Laryngitis NOS | TEAE: Lethargy | TEAE: Libido Decreased | TEAE: Lower Respiratory Tract Signs and Symptoms | TEAE: Lymphadenopathy | TEAE: Lymphangitis and Lymphatic Disorders NEC | TEAE: Menorrhagia* | TEAE: Menstruation Irregular* | TEAE: Menstruation and Uterine Bleeding NEC* | TEAE: Menstruation with Increased Bleeding* | TEAE: Mental Disorders NEC | TEAE: Mental Status Changes | TEAE: Motion Sickness | TEAE: Nail and Nail Bed Conditions (Excl Infections and Infestations) | TEAE: Nasal Congestion and Inflammations | TEAE: Neoplasms Benign Site Unspecified NEC | TEAE: Ocular Disorders NEC | TEAE: Oedema NOS | TEAE: Ovarian Cystadenofibroma* | TEAE: Ovarian Neoplasms Benign* | TEAE: Pain NOS | TEAE: Panic Attack | TEAE: Panic Symptoms | TEAE: Papulosquamous Conditions | TEAE: Partial Vision Loss | TEAE: Perception Disturbances | TEAE: Peripheral Embolism NOS | TEAE: Peripheral Embolism and Thrombosis | TEAE: Polydipsia | TEAE: Polyuria | TEAE: Posterior Capsule Opacification | TEAE: Postnasal Drip | TEAE: Premenopause* | TEAE: Pruritus NEC | TEAE: Pruritus NOS | TEAE: Psoriasis | TEAE: Psychotic Disorder NEC | TEAE: Psychotic Disorder NOS | TEAE: Pyrexia | TEAE: Respiratory Tract Congestion | TEAE: Respiratory Tract Disorders NEC | TEAE: Rhinitis Allergic NOS | TEAE: Seasonal Allergy
1 (1%) n (%): TEAE: Penile Disorders NEC (Excl Erection and Ejaculation)* | TEAE: Penile Haemorrhage* | TEAE: Prostate and Seminal Vesicles Infections and Inflammations* | TEAE: Prostatitis*
2 (<1%) n (%): TEAE: Endocrine Disorders | TEAE: Fall | TEAE: Inner Ear Signs and Symptoms | TEAE: Ocular Nerve and Muscle Disorders | TEAE: Oedema Peripheral | TEAE: Palpitations | TEAE: Pelvic Pain NOS | TEAE: Rash Macular | TEAE: Rash NOS | TEAE: Rate and Rhythm Disorders NEC | TEAE: Reproductive Tract Signs and Symptoms NEC
0 n (%): TEAE: Dysuria | TEAE: Endometriosis* | TEAE: Erythema | TEAE: Erythemas | TEAE: External Ear Disorders NEC | TEAE: Fatigue Aggravated | TEAE: Fluid in Middle Ear | TEAE: Flushing | TEAE: Goitre | TEAE: Gout | TEAE: Haematoma NOS | TEAE: Haematuria | TEAE: Hearing Losses | TEAE: Hepatitis NOS | TEAE: Hepatobiliary Signs and Symptoms | TEAE: Hepatocellular Damage and Hepatitis NEC | TEAE: Hepatosplenomegaly NOS | TEAE: Hernia Repair NOS | TEAE: Hernia Repairs | TEAE: Hot Flushes NOS | TEAE: Hyperlipidaemia NOS | TEAE: Hyperlipidaemias NEC | TEAE: Inner Ear Disorders NEC | TEAE: Insomnia | TEAE: Insomnia Exacerbated | TEAE: Intermenstrual Bleeding* | TEAE: Ischaemic Coronary Artery Disorders | TEAE: Lacrimal Disorders | TEAE: Leiomyoma NOS | TEAE: Leukopenia NOS | TEAE: Leukopenias NEC | TEAE: Lid, Lash and Lacrimal Structural Disorders (Excl Congenital) | TEAE: Lipid Metabolism Disorder NOS | TEAE: Lipid Metabolism and Deposit Disorders NEC | TEAE: Lipoma NOS | TEAE: Meniere's Disease | TEAE: Menstruation with Decreased Bleeding* | TEAE: Middle Ear Disorders NEC | TEAE: Myocardial Infarction | TEAE: Normal Pregnancy, Labour and Delivery* | TEAE: Ovarian Cancer NOS* | TEAE: Ovarian Neoplasms Malignant (Excl Germ Cell)* | TEAE: Paranasal Sinus Hypersecretion | TEAE: Peripheral Vascular Disorders NEC | TEAE: Pregnancy NOS* | TEAE: Pregnancy, Puerperium and Perinatal Conditions | TEAE: Premenstrual Syndrome* | TEAE: Productive Cough | TEAE: Proteinuria | TEAE: Purine Metabolism Disorders NEC | TEAE: Refractive Errors NOS | TEAE: Refractive and Accommodative Disorders | TEAE: Renal Lithiasis | TEAE: Retinal Detachment | TEAE: Retinal Structural Change, Deposit and Degeneration | TEAE: Rhinitis NOS | TEAE: Rhinitis Seasonal | TEAE: Rosacea | TEAE: Rosaceas
17 (6%) n (%): TEAE: Psychiatric Disorders
7 (3%) n (%): TEAE: Pain and Discomfort NEC
